# Reference: patent publication US9157905B2, “Method for identifying oncogene, method for establishing oncogene-expressing cell, and method of screening oncogene targeting drug” (FUJIREBIO INC., priority 2010, dated 2015)
# Key:
# [1] = test system: PDGFRα V561D gene-introduced cells (PC-9); test: MTS assay of living cells, PDGFRα V561D gene-introduced PC-9 cells cultured 72 hours with drug; assay type: cell-based, human
# Procedure: (§1) PC-9 cells or cells obtained by introducing the oncogene, the PDGFRα V561D gene into PC-9 cells in Example 4 were seeded in a 96-well plate. The cells were cultured for 72 hours in medium containing gefitinib at various concentrations, and then living cells were quantified by an MTS assay.
# The cells obtained by introducing the PDGFRα V561D gene into PC-9 cells in Example 4 were seeded in a 96-well plate. The cells were cultured in medium containing a PDGFRα inhibitor, imatinib at various concentrations or medium containing 1 μM gefitinib and imatinib at various concentrations for 72 hours, and then living cells were quantified by the MTS assay.
# [2] = test system: PC-9 cells; test: MTS assay of living cells, PC-9 cells cultured 72 hours with drug; assay type: cell-based, human; conditions: gefitinib at various concentrations, FIG. 5
# Procedure: as §1
structure (smiles),measurement,setting,value
Cc1ccc(NC(=O)c2ccc(CN3CCN(C)CC3)cc2)cc1Nc1nccc(-c2cccnc2)n1 [imatinib],proliferation of the PDGFRα V561D gene-introduced cells,"[1]; imatinib at various concentrations in the presence of 1 μM gefitinib, FIG. 6","inhibited by the PDGFRα inhibitor, imatinib in a dose dependent manner"
COc1cc2ncnc(Nc3ccc(F)c(Cl)c3)c2cc1OCCCN1CCOCC1 [gefitinib],proliferation of the PDGFRα V561D gene-introduced cells,"[1]; gefitinib at various concentrations, FIG. 5",not inhibited
same,proliferation of the PDGFRα V561D gene-introduced cells,"[1]; in the presence of 1 μM gefitinib (medium with imatinib at various concentrations), FIG. 6",inhibited in the presence of 1 μM gefitinib
same,proliferation of PC-9 cells,[2],inhibited by gefitinib in a dose dependent manner
